The results in this text go back to ChEMBL document CHEMBL1141862, “Pyrimido-oxazepine as a versatile template for the development of inhibitors of specific kinases” (Bioorg Med Chem Lett, 2005).

Activity calls are given as the source filed them. The calls are words filed in the database; no cut-off is given here.

The target of assay [1] is T1, Aurora kinase A (Homo sapiens, UniProt O14965).
T1 sequence (O14965 whole entry): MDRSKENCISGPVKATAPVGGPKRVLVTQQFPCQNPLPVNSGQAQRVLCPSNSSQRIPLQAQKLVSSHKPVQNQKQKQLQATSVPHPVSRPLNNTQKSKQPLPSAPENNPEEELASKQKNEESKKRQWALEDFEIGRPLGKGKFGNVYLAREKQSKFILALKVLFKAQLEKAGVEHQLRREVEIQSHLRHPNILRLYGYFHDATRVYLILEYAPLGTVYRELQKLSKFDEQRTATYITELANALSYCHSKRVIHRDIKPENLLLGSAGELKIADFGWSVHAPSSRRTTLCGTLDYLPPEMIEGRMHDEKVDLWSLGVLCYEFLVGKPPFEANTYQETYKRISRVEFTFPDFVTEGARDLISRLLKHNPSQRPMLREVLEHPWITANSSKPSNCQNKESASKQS
The experiment in a line: Inhibitory activity against Aurora A kinase.

Assay [2] concerns the target T2, Receptor-type tyrosine-protein kinase FLT3 (Homo sapiens, UniProt P36888).
T2 sequence (P36888 whole entry): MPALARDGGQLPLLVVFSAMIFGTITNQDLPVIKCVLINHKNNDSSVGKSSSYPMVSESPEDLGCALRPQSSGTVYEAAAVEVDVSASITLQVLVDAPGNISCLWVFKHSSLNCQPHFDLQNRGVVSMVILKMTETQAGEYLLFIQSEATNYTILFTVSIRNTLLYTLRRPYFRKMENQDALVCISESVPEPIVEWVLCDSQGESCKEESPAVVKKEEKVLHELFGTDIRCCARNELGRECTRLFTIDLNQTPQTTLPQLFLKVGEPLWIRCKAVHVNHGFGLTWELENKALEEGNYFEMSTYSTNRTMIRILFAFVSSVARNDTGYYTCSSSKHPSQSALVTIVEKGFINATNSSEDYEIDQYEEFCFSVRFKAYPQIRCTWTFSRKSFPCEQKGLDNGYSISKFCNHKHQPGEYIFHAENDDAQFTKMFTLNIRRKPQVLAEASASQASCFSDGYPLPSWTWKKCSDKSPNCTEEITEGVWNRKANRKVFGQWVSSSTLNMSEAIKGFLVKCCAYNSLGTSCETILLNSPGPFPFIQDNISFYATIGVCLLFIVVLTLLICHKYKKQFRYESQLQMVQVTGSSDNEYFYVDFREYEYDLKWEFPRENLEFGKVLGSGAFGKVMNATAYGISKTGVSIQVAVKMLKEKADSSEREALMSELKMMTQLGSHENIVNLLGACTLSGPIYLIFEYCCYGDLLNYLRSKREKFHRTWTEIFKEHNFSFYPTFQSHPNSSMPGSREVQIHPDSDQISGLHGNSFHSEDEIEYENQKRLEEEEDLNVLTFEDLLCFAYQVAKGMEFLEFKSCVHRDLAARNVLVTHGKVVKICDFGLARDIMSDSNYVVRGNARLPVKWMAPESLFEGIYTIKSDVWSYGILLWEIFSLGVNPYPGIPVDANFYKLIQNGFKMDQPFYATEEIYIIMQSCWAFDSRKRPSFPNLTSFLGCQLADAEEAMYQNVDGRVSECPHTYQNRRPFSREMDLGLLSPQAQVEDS
In words: Inhibitory activity against FLT3 kinase in a HTRF assay.

Assay [3] deals with Epidermal growth factor receptor (Homo sapiens) (UniProt P00533). The experiment in a line: Inhibitory activity against EGFR at 25 uM.
The target in assay [4] is Insulin-like growth factor 1 receptor (Homo sapiens) (UniProt P08069). In words: Inhibitory activity against IGF1R at 25 uM.
Assay [5] concerns the target Hepatocyte growth factor receptor (Homo sapiens) (UniProt P08581). The experiment in a line: Inhibitory activity against c-Met at 25 uM.
Assay [6] has as its target T3, Cytoplasmic tyrosine-protein kinase BMX (Homo sapiens) (UniProt P51813).
T3 sequence (whole entry): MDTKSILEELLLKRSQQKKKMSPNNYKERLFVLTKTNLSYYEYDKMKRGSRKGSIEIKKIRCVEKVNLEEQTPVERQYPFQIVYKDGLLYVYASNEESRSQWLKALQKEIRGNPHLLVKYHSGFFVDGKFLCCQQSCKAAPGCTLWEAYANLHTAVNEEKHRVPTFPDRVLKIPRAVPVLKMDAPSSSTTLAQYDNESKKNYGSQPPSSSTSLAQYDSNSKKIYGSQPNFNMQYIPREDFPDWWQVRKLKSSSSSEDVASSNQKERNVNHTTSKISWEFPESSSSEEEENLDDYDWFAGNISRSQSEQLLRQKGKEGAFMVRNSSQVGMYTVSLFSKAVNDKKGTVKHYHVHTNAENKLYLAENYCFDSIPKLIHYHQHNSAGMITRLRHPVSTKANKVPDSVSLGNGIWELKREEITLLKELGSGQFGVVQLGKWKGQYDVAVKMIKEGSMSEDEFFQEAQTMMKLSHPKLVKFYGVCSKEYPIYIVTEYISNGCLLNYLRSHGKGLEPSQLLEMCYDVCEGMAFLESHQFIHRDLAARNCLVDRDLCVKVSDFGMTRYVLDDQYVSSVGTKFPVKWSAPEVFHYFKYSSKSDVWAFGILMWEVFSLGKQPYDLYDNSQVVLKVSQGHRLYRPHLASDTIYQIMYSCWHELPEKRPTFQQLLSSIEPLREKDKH
In words: Inhibitory activity against ETK at 25 uM.

For assay [7], the target named is Vascular endothelial growth factor receptor 2 (Homo sapiens, UniProt P35968). In words: Inhibitory activity against KDR.
The target in assay [8] is Insulin receptor (Homo sapiens, UniProt P06213). In words: Inhibitory activity against IR.
The target of assay [9] is Vascular endothelial growth factor receptor 1 (Homo sapiens) (UniProt P17948). In words: Inhibitory activity against FLT1 at 25 uM.
Assay [10] has as its target Fibroblast growth factor receptor 1 (Homo sapiens) (UniProt P11362). In words: Inhibitory activity against FGF1R at 25 uM.

Hepatocyte growth factor receptor (Homo sapiens), sequence (P08581 whole entry): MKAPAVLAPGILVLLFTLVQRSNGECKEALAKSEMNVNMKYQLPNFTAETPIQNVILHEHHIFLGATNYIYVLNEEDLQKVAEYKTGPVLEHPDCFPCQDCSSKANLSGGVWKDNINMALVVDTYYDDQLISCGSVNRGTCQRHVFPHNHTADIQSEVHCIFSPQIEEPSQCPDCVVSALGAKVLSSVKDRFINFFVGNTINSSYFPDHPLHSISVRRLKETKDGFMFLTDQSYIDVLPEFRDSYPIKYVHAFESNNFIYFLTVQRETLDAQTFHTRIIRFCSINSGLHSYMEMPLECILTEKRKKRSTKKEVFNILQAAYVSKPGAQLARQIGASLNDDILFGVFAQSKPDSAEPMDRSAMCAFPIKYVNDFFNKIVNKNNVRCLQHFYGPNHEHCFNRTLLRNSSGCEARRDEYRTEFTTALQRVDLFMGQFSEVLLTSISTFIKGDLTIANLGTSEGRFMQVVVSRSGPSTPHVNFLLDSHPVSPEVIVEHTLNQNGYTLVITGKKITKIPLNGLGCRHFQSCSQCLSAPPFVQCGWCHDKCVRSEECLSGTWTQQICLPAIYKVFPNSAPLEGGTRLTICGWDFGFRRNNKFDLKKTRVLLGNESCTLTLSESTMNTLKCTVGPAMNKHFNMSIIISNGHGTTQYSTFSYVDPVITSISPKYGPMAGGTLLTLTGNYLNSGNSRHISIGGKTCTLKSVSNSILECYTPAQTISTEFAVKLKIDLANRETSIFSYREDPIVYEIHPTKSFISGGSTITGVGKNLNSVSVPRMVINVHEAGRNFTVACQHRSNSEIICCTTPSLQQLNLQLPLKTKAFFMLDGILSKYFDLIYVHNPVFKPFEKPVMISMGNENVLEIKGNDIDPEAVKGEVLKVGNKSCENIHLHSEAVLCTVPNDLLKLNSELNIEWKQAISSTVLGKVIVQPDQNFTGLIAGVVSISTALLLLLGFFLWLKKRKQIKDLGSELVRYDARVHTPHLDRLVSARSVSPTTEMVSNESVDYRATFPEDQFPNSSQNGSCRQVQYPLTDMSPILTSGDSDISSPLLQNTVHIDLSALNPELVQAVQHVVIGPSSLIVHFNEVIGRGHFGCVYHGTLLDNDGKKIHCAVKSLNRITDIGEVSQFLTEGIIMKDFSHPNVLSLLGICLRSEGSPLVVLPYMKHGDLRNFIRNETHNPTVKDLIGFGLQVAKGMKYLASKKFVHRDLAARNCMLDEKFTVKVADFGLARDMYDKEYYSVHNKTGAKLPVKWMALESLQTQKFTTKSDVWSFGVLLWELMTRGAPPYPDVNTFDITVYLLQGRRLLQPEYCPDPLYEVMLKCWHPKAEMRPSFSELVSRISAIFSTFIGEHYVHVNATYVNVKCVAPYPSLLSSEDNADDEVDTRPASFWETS
Fibroblast growth factor receptor 1 (Homo sapiens), sequence (P11362 22-822 limits assumed): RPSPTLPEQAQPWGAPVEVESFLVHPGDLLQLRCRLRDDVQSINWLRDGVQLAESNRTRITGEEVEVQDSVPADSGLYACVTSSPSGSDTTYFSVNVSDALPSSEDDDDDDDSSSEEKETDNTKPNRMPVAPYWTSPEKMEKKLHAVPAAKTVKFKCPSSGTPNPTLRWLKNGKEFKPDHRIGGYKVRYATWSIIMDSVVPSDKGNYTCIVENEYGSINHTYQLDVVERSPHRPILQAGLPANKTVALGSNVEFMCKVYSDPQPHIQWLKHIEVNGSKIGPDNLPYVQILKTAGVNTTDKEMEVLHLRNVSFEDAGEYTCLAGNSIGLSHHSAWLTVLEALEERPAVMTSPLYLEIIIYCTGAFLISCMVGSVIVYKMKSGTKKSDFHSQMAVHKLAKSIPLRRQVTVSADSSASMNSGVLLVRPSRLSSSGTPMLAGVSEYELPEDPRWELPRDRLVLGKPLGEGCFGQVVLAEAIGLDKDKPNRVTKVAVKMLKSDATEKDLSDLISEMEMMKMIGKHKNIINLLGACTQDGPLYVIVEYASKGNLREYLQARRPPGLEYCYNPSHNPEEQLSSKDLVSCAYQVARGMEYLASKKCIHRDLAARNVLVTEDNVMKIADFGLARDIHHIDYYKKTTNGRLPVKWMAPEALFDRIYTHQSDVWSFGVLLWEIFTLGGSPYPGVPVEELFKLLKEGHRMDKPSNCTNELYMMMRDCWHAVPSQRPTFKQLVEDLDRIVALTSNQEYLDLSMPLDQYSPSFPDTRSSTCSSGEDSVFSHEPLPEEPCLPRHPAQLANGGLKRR
Insulin receptor, sequence (P06213 28-758 limits assumed): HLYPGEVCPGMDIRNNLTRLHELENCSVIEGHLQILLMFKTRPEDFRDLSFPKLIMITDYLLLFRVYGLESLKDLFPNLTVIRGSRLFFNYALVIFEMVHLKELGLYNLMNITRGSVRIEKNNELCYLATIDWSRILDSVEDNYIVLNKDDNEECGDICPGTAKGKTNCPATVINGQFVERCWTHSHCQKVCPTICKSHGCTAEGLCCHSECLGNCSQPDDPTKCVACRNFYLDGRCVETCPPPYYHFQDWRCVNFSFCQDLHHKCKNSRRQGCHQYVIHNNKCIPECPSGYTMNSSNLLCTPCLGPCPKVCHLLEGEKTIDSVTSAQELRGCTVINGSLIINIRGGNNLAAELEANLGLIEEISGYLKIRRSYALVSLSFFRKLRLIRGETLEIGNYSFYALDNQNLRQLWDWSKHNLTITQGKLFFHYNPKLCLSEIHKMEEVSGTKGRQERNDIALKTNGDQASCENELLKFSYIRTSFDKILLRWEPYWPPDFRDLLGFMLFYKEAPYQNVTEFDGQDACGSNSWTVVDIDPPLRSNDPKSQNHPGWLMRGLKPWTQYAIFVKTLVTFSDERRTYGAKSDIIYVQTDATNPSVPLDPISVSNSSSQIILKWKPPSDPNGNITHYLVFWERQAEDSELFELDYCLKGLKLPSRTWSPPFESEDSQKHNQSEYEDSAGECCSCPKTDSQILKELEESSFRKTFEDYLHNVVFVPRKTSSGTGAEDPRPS
Insulin receptor, sequence (P06213 763-1382 limits assumed): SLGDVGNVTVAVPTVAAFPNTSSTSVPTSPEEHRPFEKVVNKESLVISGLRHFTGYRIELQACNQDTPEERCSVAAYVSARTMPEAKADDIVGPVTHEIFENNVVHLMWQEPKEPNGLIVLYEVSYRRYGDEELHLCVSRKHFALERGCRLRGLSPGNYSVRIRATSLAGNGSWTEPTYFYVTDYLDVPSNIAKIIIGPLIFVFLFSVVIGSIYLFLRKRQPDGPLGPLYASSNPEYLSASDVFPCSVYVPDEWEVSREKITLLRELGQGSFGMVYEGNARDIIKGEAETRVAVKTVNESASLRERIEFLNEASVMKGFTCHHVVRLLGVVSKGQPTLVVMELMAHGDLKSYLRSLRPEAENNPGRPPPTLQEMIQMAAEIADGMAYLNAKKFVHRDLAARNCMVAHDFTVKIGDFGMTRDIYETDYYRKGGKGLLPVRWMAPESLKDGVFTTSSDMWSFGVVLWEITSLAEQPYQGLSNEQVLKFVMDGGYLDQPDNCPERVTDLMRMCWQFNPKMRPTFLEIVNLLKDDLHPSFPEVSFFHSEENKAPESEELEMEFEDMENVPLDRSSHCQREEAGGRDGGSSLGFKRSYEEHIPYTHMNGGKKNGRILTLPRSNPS
Vascular endothelial growth factor receptor 1 (Homo sapiens), sequence (P17948 whole entry): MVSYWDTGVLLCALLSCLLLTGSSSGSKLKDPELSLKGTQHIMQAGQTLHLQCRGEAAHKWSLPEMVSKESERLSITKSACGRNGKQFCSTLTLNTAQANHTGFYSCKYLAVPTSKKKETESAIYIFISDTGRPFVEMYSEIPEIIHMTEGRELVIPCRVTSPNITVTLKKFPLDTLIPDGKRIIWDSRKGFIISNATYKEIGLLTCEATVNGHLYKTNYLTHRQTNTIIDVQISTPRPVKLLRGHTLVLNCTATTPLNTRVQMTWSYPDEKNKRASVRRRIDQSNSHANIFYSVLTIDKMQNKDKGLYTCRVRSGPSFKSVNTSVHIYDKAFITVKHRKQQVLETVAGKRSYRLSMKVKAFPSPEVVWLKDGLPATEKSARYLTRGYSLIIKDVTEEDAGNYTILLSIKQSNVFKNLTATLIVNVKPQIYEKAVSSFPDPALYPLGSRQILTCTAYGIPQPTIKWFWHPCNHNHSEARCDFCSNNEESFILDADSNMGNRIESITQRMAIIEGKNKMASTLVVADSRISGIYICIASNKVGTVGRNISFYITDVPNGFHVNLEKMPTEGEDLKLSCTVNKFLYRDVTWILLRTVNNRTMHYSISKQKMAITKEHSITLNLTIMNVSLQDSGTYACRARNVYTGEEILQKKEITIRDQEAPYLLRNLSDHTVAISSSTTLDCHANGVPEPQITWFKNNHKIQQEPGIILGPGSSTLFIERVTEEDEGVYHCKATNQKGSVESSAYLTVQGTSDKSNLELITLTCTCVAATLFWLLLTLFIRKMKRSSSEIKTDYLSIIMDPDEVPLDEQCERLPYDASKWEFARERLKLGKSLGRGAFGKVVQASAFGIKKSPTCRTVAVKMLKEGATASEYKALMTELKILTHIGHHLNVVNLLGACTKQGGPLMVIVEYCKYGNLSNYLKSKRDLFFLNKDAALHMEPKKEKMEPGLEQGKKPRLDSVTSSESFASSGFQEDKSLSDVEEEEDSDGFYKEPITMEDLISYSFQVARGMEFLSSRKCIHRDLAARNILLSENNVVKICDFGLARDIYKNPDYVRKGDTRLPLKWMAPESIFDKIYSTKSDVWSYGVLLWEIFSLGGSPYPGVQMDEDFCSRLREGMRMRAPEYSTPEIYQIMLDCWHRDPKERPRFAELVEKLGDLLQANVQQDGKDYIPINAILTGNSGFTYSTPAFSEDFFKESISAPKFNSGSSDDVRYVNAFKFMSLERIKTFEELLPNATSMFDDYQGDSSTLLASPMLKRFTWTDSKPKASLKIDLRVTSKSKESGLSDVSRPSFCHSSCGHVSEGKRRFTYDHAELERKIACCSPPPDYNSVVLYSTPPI

`Cc1ccc(C(=O)Nc2ncc(Nc3ncnc4c3NCc3ccccc3O4)cn2)cc1` yielded a half-inhibitory concentration (IC50) in assay [1] of 3700 nM. Still for that read-out and setting: for `CCN(CC)c1ccc2c(c1)Oc1ncnc(Nc3cnc(NC(=O)c4ccccc4)nc3)c1NC2` the value was 5000 nM. With `O=C(Nc1ccc2c(c1)CNc1c(Cl)ncnc1O2)Nc1ccc(Cl)c(C(F)(F)F)c1`, 13700 nM corresponded to half-maximal inhibition in [2] (IC50).

Turning to `COc1ccc2c(c1)Oc1ncnc(Nc3cnc(NC(=O)c4ccccc4)nc3)c1NC2`, half-maximal inhibition in assay [1] (IC50) required 600 nM. The compound `COc1ccc2c(c1)CNc1c(Nc3cnc(NC(=O)c4ccc(C)cc4)nc3)ncnc1O2` registered a 50% inhibitory concentration (IC50) in [1] of 3500 nM.

The compound `O=C(Nc1ncc(Nc2ncnc3c2NCc2ccccc2O3)cn1)c1ccccc1` came in with an IC50 in [1] of 1900 nM. `O=C(Nc1ccc2c(c1)C=Nc1c(Cl)ncnc1O2)Nc1ccc(Cl)c(C(F)(F)F)c1`: the result in [3], in [4], in assay [5], in assay [6], in [9] and in assay [10] was inactive. The IC50 in assay [2] was 450 nM; in [7], 9500 nM; in [8], 9500 nM. On to `COc1cc2c(cc1OC)Oc1ncnc(Nc3cnc(NC(=O)c4ccc(C)cc4)nc3)c1NC2`, for which the IC50 in assay [1] was found to be 1200 nM.

The compound `COc1ccc2c(c1)Oc1ncnc(Nc3cnc(NC(=O)c4ccc(F)cc4)nc3)c1NC2` showed an IC50 in assay [1] of 330 nM.

`COc1ccc2c(c1)CNc1c(Nc3cnc(NC(=O)c4ccccc4)nc3)ncnc1O2` had a half-inhibitory concentration (IC50) in assay [1] of 970 nM. As for `COc1cc2c(cc1OC)Oc1ncnc(Nc3cnc(NC(=O)c4cccc(F)c4)nc3)c1NC2`, the IC50 in assay [1] was determined as 1100 nM. In [2], `O=C(Nc1ccc2c(c1)CNc1cnc(Cl)nc1O2)Nc1ccc(Cl)c(C(F)(F)F)c1` displayed an IC50 of 900 nM. Compound `COc1cccc2c1CNc1c(Nc3cnc(NC(=O)c4ccccc4)nc3)ncnc1O2` had an IC50 in assay [1] of 2200 nM. `COc1ccc2c(c1)CNc1c(Nc3cnc(NC(=O)c4cccc(F)c4)nc3)ncnc1O2` yielded an IC50 in assay [1] of 1100 nM. With `COc1cc2c(cc1OC)Oc1ncnc(Nc3cnc(NC(=O)c4ccccc4)nc3)c1NC2`, the IC50 in assay [1] came out at 470 nM. As to `COc1cccc2c1Oc1ncnc(Nc3cnc(NC(=O)c4ccccc4)nc3)c1NC2`, the IC50 in [1] is > 10000 nM. Take `COc1ccc2c(c1)Oc1ncnc(Nc3cnc(NC(=O)c4cccc(F)c4)nc3)c1NC2`: the IC50 in assay [1] turned out to be 320 nM.
